Reference: PubChem BioAssay (NCI)
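Abbreviation: GI50, concentration required for 50% inhibition of growth. Definition used: TGI = concentration required for complete inhibition of growth.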

Assays:
Experiment in all cases: DTP human tumour cell line panel, 384-well format
OVCAR-5 ovarian = system: OVCAR-5 ovarian
MDA-MB-435 melanoma = system: MDA-MB-435 melanoma
HCC-2998 colon = system: HCC-2998 colon
SK-MEL-5 melanoma = system: SK-MEL-5 melanoma
HT29 colon = system: HT29 colon
U251 glioblastoma = system: U251 glioblastoma
HS 578T breast = system: HS 578T breast
OVCAR-8 ovarian = system: OVCAR-8 ovarian
A549 NSCLC = system: A549 NSCLC
HOP-62 NSCLC = system: HOP-62 NSCLC
MCF7 breast = system: MCF7 breast
DU-145 prostate = system: DU-145 prostate
HL-60(TB) leukemia = system: HL-60(TB) leukemia
NCI-H226 lung = system: NCI-H226 lung
ACHN renal = system: ACHN renal
HCT-116 colon = system: HCT-116 colon
SNB-19 CNS = system: SNB-19 CNS
NCI-H322M lung = system: NCI-H322M lung
PC-3 prostate = system: PC-3 prostate
SK-MEL-28 melanoma = system: SK-MEL-28 melanoma
UO-31 renal = system: UO-31 renal
SF-295 CNS = system: SF-295 CNS
MDA-MB-468 breast = system: MDA-MB-468 breast
SF-539 CNS = system: SF-539 CNS
MALME-3M melanoma = system: MALME-3M melanoma
BT-549 breast = system: BT-549 breast
SN12C renal = system: SN12C renal
UACC-62 melanoma = system: UACC-62 melanoma
RXF 393 renal = system: RXF 393 renal
MOLT-4 leukemia = system: MOLT-4 leukemia
KM12 colon = system: KM12 colon
SF-268 CNS = system: SF-268 CNS
CCRF-CEM leukemia = system: CCRF-CEM leukemia
A498 renal = system: A498 renal
NCI-H23 lung = system: NCI-H23 lung
IGROV1 ovarian = system: IGROV1 ovarian
SR leukemia = system: SR leukemia
HCT-15 colon = system: HCT-15 colon
OVCAR-4 ovarian = system: OVCAR-4 ovarian
LOX IMVI melanoma = system: LOX IMVI melanoma
NCI-H460 NSCLC = system: NCI-H460 NSCLC
UACC-257 melanoma = system: UACC-257 melanoma
COLO 205 colon = system: COLO 205 colon
CAKI-1 renal = system: CAKI-1 renal
SK-MEL-2 melanoma = system: SK-MEL-2 melanoma
OVCAR-3 ovarian = system: OVCAR-3 ovarian
MDA-MB-231 breast = system: MDA-MB-231 breast

Structure (SMILES): O=C1CC[C@H](N2Cc3c(OCc4ccc(CN5CCOCC5)cc4)cccc3C2=O)C(=O)N1
- GI50 (OVCAR-5 ovarian): > 100 µM
- TGI (OVCAR-5 ovarian): > 100 µM
- GI50 (MDA-MB-435 melanoma): > 100 µM
- TGI (MDA-MB-435 melanoma): > 100 µM
- GI50 (HCC-2998 colon): > 100 µM
- TGI (HCC-2998 colon): > 100 µM
- GI50 (SK-MEL-5 melanoma): > 100 µM
- TGI (SK-MEL-5 melanoma): > 100 µM
- GI50 (HT29 colon): > 100 µM
- TGI (HT29 colon): > 100 µM
- GI50 (U251 glioblastoma): > 100 µM
- TGI (U251 glioblastoma): > 100 µM
- GI50 (HS 578T breast): > 100 µM
- TGI (HS 578T breast): > 100 µM
- GI50 (OVCAR-8 ovarian): > 100 µM
- TGI (OVCAR-8 ovarian): > 100 µM
- GI50 (A549 NSCLC): > 100 µM
- TGI (A549 NSCLC): > 100 µM
- GI50 (HOP-62 NSCLC): > 100 µM
- TGI (HOP-62 NSCLC): > 100 µM
- GI50 (MCF7 breast): > 100 µM
- TGI (MCF7 breast): > 100 µM
- GI50 (DU-145 prostate): > 100 µM
- TGI (DU-145 prostate): > 100 µM
- GI50 (HL-60(TB) leukemia): 43.9 µM
- TGI (HL-60(TB) leukemia): > 100 µM
- GI50 (NCI-H226 lung): > 100 µM
- TGI (NCI-H226 lung): > 100 µM
- GI50 (ACHN renal): > 100 µM
- TGI (ACHN renal): > 100 µM
- GI50 (HCT-116 colon): > 100 µM
- TGI (HCT-116 colon): > 100 µM
- GI50 (SNB-19 CNS): > 100 µM
- TGI (SNB-19 CNS): > 100 µM
- GI50 (NCI-H322M lung): > 100 µM
- TGI (NCI-H322M lung): > 100 µM
- GI50 (PC-3 prostate): > 100 µM
- TGI (PC-3 prostate): > 100 µM
- GI50 (SK-MEL-28 melanoma): > 100 µM
- TGI (SK-MEL-28 melanoma): > 100 µM
- GI50 (UO-31 renal): > 100 µM
- TGI (UO-31 renal): > 100 µM
- GI50 (SF-295 CNS): > 100 µM
- TGI (SF-295 CNS): > 100 µM
- GI50 (MDA-MB-468 breast): > 100 µM
- TGI (MDA-MB-468 breast): > 100 µM
- GI50 (SF-539 CNS): > 100 µM
- TGI (SF-539 CNS): > 100 µM
- GI50 (MALME-3M melanoma): > 100 µM
- TGI (MALME-3M melanoma): > 100 µM
- GI50 (BT-549 breast): > 100 µM
- TGI (BT-549 breast): > 100 µM
- GI50 (SN12C renal): > 100 µM
- TGI (SN12C renal): > 100 µM
- GI50 (UACC-62 melanoma): > 100 µM
- TGI (UACC-62 melanoma): > 100 µM
- GI50 (RXF 393 renal): > 100 µM
- TGI (RXF 393 renal): > 100 µM
- GI50 (MOLT-4 leukemia): > 100 µM
- TGI (MOLT-4 leukemia): > 100 µM
- GI50 (KM12 colon): > 100 µM
- TGI (KM12 colon): > 100 µM
- GI50 (SF-268 CNS): > 100 µM
- TGI (SF-268 CNS): > 100 µM
- GI50 (CCRF-CEM leukemia): > 100 µM
- TGI (CCRF-CEM leukemia): > 100 µM
- GI50 (A498 renal): > 100 µM
- TGI (A498 renal): > 100 µM
- GI50 (NCI-H23 lung): > 100 µM
- TGI (NCI-H23 lung): > 100 µM
- GI50 (IGROV1 ovarian): > 100 µM
- TGI (IGROV1 ovarian): > 100 µM
- GI50 (SR leukemia): > 100 µM
- TGI (SR leukemia): > 100 µM
- GI50 (HCT-15 colon): > 100 µM
- TGI (HCT-15 colon): > 100 µM
- GI50 (OVCAR-4 ovarian): > 100 µM
- TGI (OVCAR-4 ovarian): > 100 µM
- GI50 (LOX IMVI melanoma): > 100 µM
- TGI (LOX IMVI melanoma): > 100 µM
- GI50 (NCI-H460 NSCLC): > 100 µM
- TGI (NCI-H460 NSCLC): > 100 µM
- GI50 (UACC-257 melanoma): > 100 µM
- TGI (UACC-257 melanoma): > 100 µM
- GI50 (COLO 205 colon): > 100 µM
- TGI (COLO 205 colon): > 100 µM
- GI50 (CAKI-1 renal): > 100 µM
- TGI (CAKI-1 renal): > 100 µM
- GI50 (SK-MEL-2 melanoma): > 100 µM
- TGI (SK-MEL-2 melanoma): > 100 µM
- GI50 (OVCAR-3 ovarian): > 100 µM
- TGI (OVCAR-3 ovarian): > 100 µM
- GI50 (MDA-MB-231 breast): > 100 µM
- TGI (MDA-MB-231 breast): > 100 µM
